Columns and labels:
[1] = target: human GABA A α1β2/3γ2 (Homo sapiens, UniProt P14867+P18507); assay: Two-microelectrode voltage clamp, modulation of GABA EC10 response in Xenopus oocytes, α1β2/3γ2; format: cell-based; design: expressed in transfected cells; host or cells: Xenopus laevis oocytes; settings: % change of EC10 GABA response at 3 μM or at 30×Ki if Ki below 0.1 μM
[2] = target: human GABA A α2β3γ2 (Homo sapiens, UniProt P18507+P47869); assay: Two-microelectrode voltage clamp, modulation of GABA EC10 response in Xenopus oocytes, α2β3γ2; format: cell-based; design: expressed in transfected cells; host or cells: Xenopus laevis oocytes; settings: % change of EC10 GABA response at 3 μM or at 30×Ki if Ki below 0.1 μM
human GABA A α2β3γ2, sequence (P47869 29-451): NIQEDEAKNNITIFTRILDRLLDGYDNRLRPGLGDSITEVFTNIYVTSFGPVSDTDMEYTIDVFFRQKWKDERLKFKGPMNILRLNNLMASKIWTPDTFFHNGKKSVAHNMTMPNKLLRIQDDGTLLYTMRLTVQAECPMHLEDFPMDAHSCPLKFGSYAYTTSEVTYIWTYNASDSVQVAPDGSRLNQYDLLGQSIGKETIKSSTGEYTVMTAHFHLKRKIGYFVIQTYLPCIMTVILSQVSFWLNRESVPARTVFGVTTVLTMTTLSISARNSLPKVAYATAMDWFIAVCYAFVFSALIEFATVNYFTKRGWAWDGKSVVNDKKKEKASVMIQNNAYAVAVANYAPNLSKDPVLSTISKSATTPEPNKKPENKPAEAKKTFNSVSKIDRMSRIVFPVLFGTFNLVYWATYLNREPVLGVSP
human GABA A α2β3γ2, sequence (P28472 26-473 partner): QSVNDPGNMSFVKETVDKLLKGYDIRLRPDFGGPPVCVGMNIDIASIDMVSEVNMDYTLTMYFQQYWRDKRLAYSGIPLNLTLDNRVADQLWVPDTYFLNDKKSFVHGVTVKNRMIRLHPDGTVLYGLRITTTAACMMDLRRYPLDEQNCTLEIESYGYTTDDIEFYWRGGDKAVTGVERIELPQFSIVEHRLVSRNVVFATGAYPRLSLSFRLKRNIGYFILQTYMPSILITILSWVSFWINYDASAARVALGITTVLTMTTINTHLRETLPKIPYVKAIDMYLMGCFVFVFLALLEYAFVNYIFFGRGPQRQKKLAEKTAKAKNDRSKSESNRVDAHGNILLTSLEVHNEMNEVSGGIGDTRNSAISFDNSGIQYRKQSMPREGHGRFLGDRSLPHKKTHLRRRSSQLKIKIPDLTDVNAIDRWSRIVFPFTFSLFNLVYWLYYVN
human GABA A α2β3γ2, sequence (P18507 40-475): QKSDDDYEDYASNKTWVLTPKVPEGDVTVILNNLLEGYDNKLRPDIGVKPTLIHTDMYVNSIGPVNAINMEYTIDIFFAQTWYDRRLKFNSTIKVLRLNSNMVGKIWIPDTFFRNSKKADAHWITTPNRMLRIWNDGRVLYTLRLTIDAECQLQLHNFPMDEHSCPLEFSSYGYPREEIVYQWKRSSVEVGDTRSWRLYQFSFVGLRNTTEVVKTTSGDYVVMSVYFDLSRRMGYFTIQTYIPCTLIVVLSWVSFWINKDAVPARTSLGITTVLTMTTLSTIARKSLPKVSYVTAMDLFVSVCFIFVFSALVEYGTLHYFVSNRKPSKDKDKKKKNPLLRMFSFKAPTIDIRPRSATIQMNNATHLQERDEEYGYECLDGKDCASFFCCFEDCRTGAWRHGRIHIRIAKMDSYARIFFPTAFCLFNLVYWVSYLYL
Description: (§1) Table 2b. […] Effect at human GABA A α5 receptors: % change of a submaximal (EC10) response to GABA determined at 30×Ki value from the flumazenil binding assay.
(§2) Subtype-selective effects were determined on cloned receptors expressed in Xenopus oocytes. Human recombinant GABA A receptors were expressed in Xenopus laevis oocytes. Current responses were evoked in two-microelectrode voltage-clamp condition by applying an EC10 of GABA before and during the co-application of the test compound. Response amplitudes in the presence of the test compound are expressed as percentage of the amplitudes before drug addition.

[3] = test system: hippocampal slices of Ts65Dn mice; assay: Long term potentiation in hippocampal slices after chronic treatment; format: in vivo; settings: 20 mg/kg p.o. for six weeks, vs control mice
Description: The effect of chronic administration of 8581 and R1 on LTP was evaluated in the Ts65Dn mouse model of Down syndrome. 8581, R1 (20 mg/kg p.o.) or vehicle was administered for six weeks. Mice were decapitated 1 hour after the last administration and the brains were rapidly removed. The hippocampi were dissected and 400-μm slices were cut with a tissue chopper. […] Field excitatory postsynaptic potentials (fEPSPs) were recorded from the CA1 stratum radiatum with a glass micropipette (1-4 MΩ) containing 2 M NaCl and evoked by stimulation of the Schaffer collaterals with insulated bipolar platin/iridium electrodes >500 μm away from the recording electrode. The stimulus strength was adjusted to evoke fEPSPs equal to 50% of the relative maximum amplitude without superimposed population spike. After stable baseline recordings (100 μs pulse-duration, 0.033 Hz), long term potentiation (LTP) was induced by TBS (10 trains of 5 pulses at 100 Hz and intervals of 200 ms). The duration of the stimulation pulses was doubled during the tetanus. After 20 min of baseline recording, LTP was induced and recorded for 80 min in each individual hippocampal slice. […] For the analysis, fEPSP slopes were expressed as a percentage of the baseline values recorded. Results from several slices were expressed as mean±SEM. […]

[4] = target: human GABA A α3β3γ2 (Homo sapiens, UniProt P18507+P34903); assay: Two-microelectrode voltage clamp, modulation of GABA EC10 response in Xenopus oocytes, α3β3γ2; format: cell-based; design: expressed in transfected cells; host or cells: Xenopus laevis oocytes; settings: % change of EC10 GABA response at 3 μM or at 30×Ki if Ki below 0.1 μM
human GABA A α3β3γ2, sequence (P34903 29-492): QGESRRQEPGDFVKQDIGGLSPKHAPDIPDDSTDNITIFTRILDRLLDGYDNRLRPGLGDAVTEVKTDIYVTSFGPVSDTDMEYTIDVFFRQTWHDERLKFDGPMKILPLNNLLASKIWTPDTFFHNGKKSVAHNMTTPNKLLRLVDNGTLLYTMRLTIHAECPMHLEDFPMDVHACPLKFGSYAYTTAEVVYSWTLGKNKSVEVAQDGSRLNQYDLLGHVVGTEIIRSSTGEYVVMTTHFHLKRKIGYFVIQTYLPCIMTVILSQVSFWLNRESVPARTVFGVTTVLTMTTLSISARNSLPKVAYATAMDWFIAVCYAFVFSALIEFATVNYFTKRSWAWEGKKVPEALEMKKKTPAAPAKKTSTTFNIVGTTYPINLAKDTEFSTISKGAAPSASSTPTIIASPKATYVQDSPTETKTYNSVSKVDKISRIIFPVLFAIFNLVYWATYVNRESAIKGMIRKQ
human GABA A α3β3γ2, sequence (P28472 26-473 partner): as the sequence (P28472 26-473 partner) above
human GABA A α3β3γ2, sequence (P18507 40-475): as the sequence (P18507 40-475) above
Description: as §1, §2

[5] = test system: Ts65Dn and control mice; assay: Sensorimotor test battery; format: in vivo; settings: 20 mg/kg p.o. chronic; for Auditory startle / Equilibrium aluminium bar / Equilibrium wooden bar / Grip strength / Prehensile reflex / Righting reflex / Traction capacity / Vision: mean score; for effect on sensorimotor abilities: Ts65Dn or control mice
Description: For mice studies, active pharmaceutical compounds of present invention were formulated in chocolate-milk (Puleva, Barcelona, Spain). Active pharmaceutical compounds of present invention or vehicle were administered p.o. at a dose of 20 mg/kg for six weeks. Their administration was prolonged during the 30 days of the behavioral assessment.
A battery of sensorimotor tests was performed following the procedure described by Rueda N et al. [Neurosci Leu (2008) 433(1):22-27]. In the visual placing reflex test, cerebellar and vestibular functions were evaluated. […] The response of forepaw extension was scored on a 0-4 scale [4: animal extends the forepaws when placed at the highest height; 3: forepaws extended before touching the surface with vibrissae; 2: forepaws extended after vibrissae touched the surface; 1: forepaws extended after the nose touched the surface; 0: no extension].
To evaluate auditory sensitivity, the startle response to a sudden auditory stimulus was measured. Mice were placed facing the wall of an unfamiliar cage and the auditory stimulus was generated by clapping together two stainless steel forceps (7 cm long). A score (0-3 points) was assigned based on the magnitude of the response: jumping more than 1 cm (3 points); jumping less than 1 cm (2 points); retracting of the ears (Preyer reflex, 1 point); or no response (0 points).
The vibrissa placing reflex was analyzed by noting the reflective reaction to touching the vibrissae with a cotton stick. In three consecutive trials, a score of 1 was assigned to animals that touched the stimulated vibrissae with an ipsilateral paw, and 0 if there was no response. Grip strength was assessed by quantifying the resistance to being separated from a lid of aluminum bars (2 mm), when dragged by the tail (0: no resistance, total loss of grip strength; 1: slight; 2: moderate; 3: active; 4: extremely active resistance, normal grip strength).
In order to evaluate equilibrium, four 20-s trials of balance were performed on an elevated (40 cm high), horizontal (50 cm long) rod. Trials 1 and 2 were performed on a flat wooden rod (9 mm wide); trials 3 and 4 were performed on a cylindrical aluminum rod (1 cm diameter). In each trial, the animals were placed in a marked central zone (10 cm) on the elevated rod. A score of 0 was given if the animal fell within 20 s, 1 if it stayed within the central zone for >20 s, 2 if it left the central zone, and 3 if it reached one of the ends of the bar.
Prehensile reflex (three 5-s trials) was measured as the ability of the animal to remain suspended by the forepaws by grasping an elevated horizontal wire (2 mm in diameter). The maximum possible score of 3 was achieved when the animal remained suspended by the forepaws in all three trials (one point per trial). Traction capacity was scored at the same time by assessing the number of hind limbs that the animal raised to reach the wire (0: none; 1: one limb; 2: two limbs).

[6] = target: human GABA A α5β3γ2 (Homo sapiens, UniProt P18507+P31644); assay: Two-microelectrode voltage clamp, modulation of GABA EC10 response in Xenopus oocytes, α5β3γ2; format: cell-based; design: expressed in transfected cells; host or cells: Xenopus laevis oocytes; settings: % change of submaximal (EC10) response to GABA at 30×Ki
human GABA A α5β3γ2, sequence (P31644 32-462): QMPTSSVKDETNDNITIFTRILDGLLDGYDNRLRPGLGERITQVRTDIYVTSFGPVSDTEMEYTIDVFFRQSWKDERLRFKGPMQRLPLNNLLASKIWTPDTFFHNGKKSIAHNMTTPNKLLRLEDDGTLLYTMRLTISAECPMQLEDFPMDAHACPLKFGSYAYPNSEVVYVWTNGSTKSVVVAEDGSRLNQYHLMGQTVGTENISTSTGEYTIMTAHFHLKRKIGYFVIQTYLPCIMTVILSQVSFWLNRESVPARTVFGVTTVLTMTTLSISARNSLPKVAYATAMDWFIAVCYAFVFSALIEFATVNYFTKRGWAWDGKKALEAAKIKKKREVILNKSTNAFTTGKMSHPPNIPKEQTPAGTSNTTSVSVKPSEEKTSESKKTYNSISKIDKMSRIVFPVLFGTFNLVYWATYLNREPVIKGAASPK
human GABA A α5β3γ2, sequence (P28472 26-473 partner): as the sequence (P28472 26-473 partner) above
human GABA A α5β3γ2, sequence (P18507 40-475): as the sequence (P18507 40-475) above
Description: as §1, §2

human GABA A α1β2/3γ2, sequence (P14867 28-456): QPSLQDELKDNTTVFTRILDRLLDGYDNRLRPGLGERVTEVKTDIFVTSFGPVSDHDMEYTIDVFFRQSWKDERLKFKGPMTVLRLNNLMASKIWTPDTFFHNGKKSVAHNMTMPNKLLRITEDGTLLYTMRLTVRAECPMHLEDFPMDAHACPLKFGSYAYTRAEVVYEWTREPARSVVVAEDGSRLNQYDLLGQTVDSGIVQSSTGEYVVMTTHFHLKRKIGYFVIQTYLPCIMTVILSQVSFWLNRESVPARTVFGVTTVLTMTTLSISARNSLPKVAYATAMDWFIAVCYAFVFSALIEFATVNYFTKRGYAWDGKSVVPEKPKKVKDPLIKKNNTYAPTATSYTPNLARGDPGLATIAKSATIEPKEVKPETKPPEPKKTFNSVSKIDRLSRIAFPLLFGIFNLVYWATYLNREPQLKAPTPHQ
human GABA A α1β2/3γ2, sequence (P18507 40-475): as the sequence (P18507 40-475) above

Row | SMILES | Efficacy GABA A α1β2/3γ2 [1] [%] | Efficacy GABA A α2β3γ2 [2] [%] | LTP induced in hippocampal slices of treated Ts65Dn animals [3] | Efficacy GABA A α3β3γ2 [4] [%] | Latency arrival coat hanging ([5]; Ts65Dn mice) | Latency to fall aluminium bar ([5]; Ts65Dn mice) | Latency to fall wooden bar ([5]; Ts65Dn mice) | Number of crossings coat hanging ([5]; Ts65Dn mice) | Auditory startle ([5]; Ts65Dn mice) | Equilibrium aluminium bar ([5]; Ts65Dn mice) | Equilibrium wooden bar ([5]; Ts65Dn mice) | Grip strength ([5]; Ts65Dn mice) | Prehensile reflex ([5]; Ts65Dn mice) | Righting reflex ([5]; Ts65Dn mice) | Traction capacity ([5]; Ts65Dn mice) | Vision ([5]; Ts65Dn mice) | effect on sensorimotor abilities [5] | Latency arrival coat hanging ([5]; control mice) | Latency to fall aluminium bar ([5]; control mice) | Latency to fall wooden bar ([5]; control mice) | further results
1 | FC(F)c1ncn2c1Cn1ncnc1-c1cc(Br)ccc1-2 [Compound 8581, 3-Bromo-10-difluoromethyl-9H-imidazo[1,5-a][1,2,4]triazolo[1,5-d][1,4]benzodiazepine] | −1 | −11 | not different from that induced in hippocampal slices of control mice | −1 | 35.44 | 12.11 | 17.77 | 3.33 | 1.33 | 1.00 | 3.55 | 2.00 | 2.67 | 3.00 | 1.67 | 7.67 | did not modify any of the sensorimotor abilities tested | 46.45 | 14.73 | 20.00 | Number of crossings coat hanging ([5]; control mice): 2.64; Auditory startle ([5]; control mice): 1.00; Equilibrium aluminium bar ([5]; control mice): 1.36; Equilibrium wooden bar ([5]; control mice): 2.8; Grip strength ([5]; control mice): 1.55; Prehensile reflex ([5]; control mice): 2.45; Righting reflex ([5]; control mice): 3.00; Traction capacity ([5]; control mice): 1.82; Vision ([5]; control mice): 7.64; Efficacy GABA A α5β3γ2 [6]: −46%
2 | Cc1onc(-c2ccc(F)cc2)c1COc1ccc(C(=O)N2CCS(=O)(=O)CC2)cn1 [Compound R1, (1,1-Dioxo-1,6-thiomorpholin-4-yl)-{6-[3-(4-fluoro-phenyl)-5-methyl-isoxazol-4-ylmethoxy]-pyridin-3-yl}-methanone] | −4 | −6 | not different from that induced in hippocampal slices of control mice | −2 | 37.37 | 13.71 | 20.00 | 3.19 | 1.31 | 1.13 | 3.19 | 1.75 | 2.75 | 3.00 | 2.50 | 9.19 | did not modify any of the sensorimotor abilities tested | 30.93 | 11.16 | 20.00 | Number of crossings coat hanging ([5]; control mice): 2.73; Auditory startle ([5]; control mice): 1.00; Equilibrium aluminium bar ([5]; control mice): 0.80; Equilibrium wooden bar ([5]; control mice): 2.53; Grip strength ([5]; control mice): 2.2; Prehensile reflex ([5]; control mice): 2.53; Righting reflex ([5]; control mice): 3.00; Traction capacity ([5]; control mice): 1.80; Vision ([5]; control mice): 8.40; Efficacy GABA A α5β3γ2 [6]: −39%
